{"source": "patent US20040033902A1", "about": "“Diphenyl ehter induction systemic resistance in plants” (priority 2002, published 2004)", "key": {"[1]": {"test_system": "snapped cotyledons of Williams variety soybean", "experiment": "Snapped cotyledon assay, isoflavone and glyceollin induction, HPLC (Example 4)", "type": "cell-based", "details": "7 day old Williams soybean, average of two experiments; for Glyceollin Induction: 48 h, tested 10 uM to 1 mM alone and with 30 ug/ml glucan elicitor from Phytophthora sojae, concentration not given; for Total Isoflavone Induction: 48 h constant light, tested 10 uM to 1 mM, concentration of the printed value not stated, standard error less than 15%", "method": "The snapped cotyledon assay is a minimal wound assay used to investigate the effects of test compounds in a non-primed background. The assay is performed by snapping cotyledons in two and placing the petiole side down in 0.5% water agar. Ten snapped cotyledons are used per treatment, and the subepidermal cells exposed by snapping are treated with glucan defense elicitor and/or the effector (i.e., diphenyl ether) being examined. The cotyledons are incubated in the light for 48 h as in the cut cotyledon assay. Both proximal (first cell layer) and distal (second and third cell layers) are harvested for analysis by HPLC (see below). Full details of this assay can be found in the publication: Graham, T. L. and Graham, M. Y. 1996. Signaling in soybean phenylpropanoid responses: dissection of primary, secondary and conditioning effects of light, wounding and elicitor treatments. Plant Physiol. 110:1123-1133.\nThe snapped cotyledon assay is “naive.” That is, it is not pre-disposed or primed for competency for the elicitation of phytoalexin glyceollin in response to the glucan elicitor. Thus, treatment with the glucan elicitor induces the formation of the isoflavones daidzein and genistein, but very little glyceollin. This is an excellent assay to study the effects of a chemical treatment on isoflavone metabolism by itself or in combination with the glucan. In the absence of the glucan, it gives an excellent picture of the effects of the compound alone on isoflavone metabolism. In the presence of the glucan, it tells us if the test compound can induce elicitation competency for the glyceollin response to the glucan.\nHigh performance liquid chromatography (HPLC) is the method of choice for determining the levels of isoflavone defense compounds in soybean. With a single HPLC analysis, one gets a complete and quantitative profile of up to 50 or more aromatic compounds, including all the isoflavones and their conjugates and the phytoalexins, including glyceollin. As little as 20 mg of plant tissue is needed and the method can be readily applied to cotyledon, leaf or any soybean tissue. This analytical method allows us to determine the nmoles/g of each metabolite, which can then readily be processed to compare the percent increase or decrease of a given metabolite in comparison to either water or glucan-treated control tissues. Routinely, tissues are extracted in 80% ethanol and subjected to water/acetonitrile gradient elution from a C18 reverse phase HPLC column. Full details of this procedure can be found in the publication: Graham, T. L. 1991. A Rapid, High Resolution High Performance Liquid Chromatography Profiling Procedure for Plant and Microbial Aromatic Secondary Metabolites. Plant Physiol. 95:584-593. […]"}, "[2]": {"test_system": "cut cotyledons (Williams cotyledons)", "experiment": "Cut cotyledon assay, isoflavones (Williams cotyledons)", "type": "cell-based, soybean", "details": "50-500 uM", "method": "The cut cotyledon assay is used to investigate both the ability of a compound (effector) to activate basal elicitation competency in plants, and to evaluate the ability of a secondary compound (elicitor) to enhance glyceollin elicitation competency in plants in which the isoflavone pools were “loaded” by the action of the effector.\nThe level of isoflavones in the cotyledon tissues are measured after the addition of different diphenyl ethers to determine the effectiveness of each in inducing the basal production of isoflavones in cotyledon tissues (effector studies). In the elicitor studies, the addition of diphenyl ether first “primes” the cut cotyledon. […] Thus, the ability of a compound to enhance glyceollin elicitation competency by “loading” the isoflavone pools can also be measured.\nCotyledons from 7-8 day old soybean seedlings are removed from the plant and cut on the lower surface to expose subepidermal tissues. […] Tissues are analyzed by HPLC as noted below. […]\nHigh performance liquid chromatography (HPLC) is the method of choice for determining the levels of isoflavone defense compounds in soybean. With a single HPLC analysis, one gets a complete and quantitative profile of up to 50 or more aromatic compounds, including all the isoflavones and their conjugates and the phytoalexins, including glyceollin. […]"}}}
{"smiles": "O=C(O)c1cc(Oc2ccc(C(F)(F)F)cc2Cl)ccc1[N+](=O)[O-]", "note": "[Acifluorfen, acifluorfen]", "values": [{"measurement": "Glyceollin Induction", "setting": "[1]", "result": "+122%"}, {"measurement": "Total Isoflavone Induction", "setting": "[1]", "result": "+56%"}]}
{"smiles": "CS(=O)(=O)NC(=O)c1cc(Oc2ccc(C(F)(F)F)cc2Cl)ccc1[N+](=O)[O-]", "note": "[Fomesafen, fomesafen]", "values": [{"measurement": "Glyceollin Induction", "setting": "[1]", "result": "+233%"}, {"measurement": "Total Isoflavone Induction", "setting": "[1]", "result": "+85%"}]}
{"smiles": "N[C@@H](Cc1cc(I)c(Oc2cc(I)c(O)c(I)c2)c(I)c1)C(=O)O", "note": "[thyroxine]", "values": [{"measurement": "range of increase of isoflavones over the concentration range", "setting": "[2]", "result": "20-40%"}]}
